Test results from patent publication US9463173B2, “Compositions and methods for treating obesity and obesity-related conditions” (THE JOHNS HOPKINS UNIVERSITY, priority 2014, dated 2016).

Columns and labels:
AMPK [1] = experiment: AMPK/ACC phosphorylation in primary mouse hepatocytes (immunoblot); assay type: cell-based; parameters: Phosphorylation (Ser79) of ACC / AMPK protein levels / ACC protein levels / Phosphorylation of ACC stimulated by VPA, in presence of AMPK inhibitor: dose or concentration left out as unconfirmed; settings: for Levels of phosphorylated AMPK/ACC compared with VPA: 20 mM metabolite vs 800 mM VPA, 2 hours; for Levels of phosphorylated AMPK/ACC at higher concentration: 100 mM metabolite (data not shown)
Description: (§1) Proteins (20 mg) were resolved by sodium dodecyl sulfate polyacrylamide gel electrophoresis, electrotransferred to a nitrocellulose membrane, and probed using antibodies against AMPKa, phosphorylated (p-) AMPKa (Thr172), ACC, p-ACC (Ser79), and b-actin (obtained from Cell Signaling Technology, Danvers, Mass.).

[2] = test system: HDAC activity of mouse liver nuclear extracts; experiment: HDAC activity fluorometric assay, crude nuclear extracts; assay type: biochemical; parameters: dose or concentration left out as unconfirmed; settings: mean ± S.D.
Description: (§2) FIG. 5A-5D. […] Deacetylation was measured using a fluorimetric assay. […] AMPKa was immunoprecipitated and immunoblotted for AMPKa and acetylated lysine (D). Immunoblots shown in D are representative of three independent experiments. Data in graphs are reported as the mean […] S.D. of samples from four independent experiments. […] DMSO, dimethylsulfoxide.
(§3) Analysis of HDAC activity was performed using an HDAC activity fluorometric assay kit (Caymen Chemicals, Ann Arbor, Mich.) and was carried out according to the manufacturer's instructions. Crude nuclear extracts were prepared from primary mouse hepatocytes as described in the manufacturer's instructions.

human recombinant HDAC1 = human recombinant HDAC1 (Homo sapiens, UniProt Q13547); experiment: HDAC activity fluorometric assay, recombinant HDAC1; assay type: biochemical; settings: 800 mM VPA; 1 mM TSA; 20 mM metabolites; mean ± S.D.
human recombinant HDAC1, sequence (Q13547 whole entry): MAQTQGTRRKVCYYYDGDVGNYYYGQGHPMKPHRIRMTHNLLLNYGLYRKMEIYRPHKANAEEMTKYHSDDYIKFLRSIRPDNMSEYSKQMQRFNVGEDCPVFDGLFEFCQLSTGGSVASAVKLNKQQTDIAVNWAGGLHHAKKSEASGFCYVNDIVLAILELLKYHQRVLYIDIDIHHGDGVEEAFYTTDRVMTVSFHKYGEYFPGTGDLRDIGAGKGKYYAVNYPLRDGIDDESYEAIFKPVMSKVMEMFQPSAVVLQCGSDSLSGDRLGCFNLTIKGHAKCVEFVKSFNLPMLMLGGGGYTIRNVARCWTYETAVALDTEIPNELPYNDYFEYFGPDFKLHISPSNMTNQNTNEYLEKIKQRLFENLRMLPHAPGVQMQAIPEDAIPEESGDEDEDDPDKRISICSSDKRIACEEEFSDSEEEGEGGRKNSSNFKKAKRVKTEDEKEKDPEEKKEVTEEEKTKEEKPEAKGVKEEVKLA
Description: as §2, §3

AMPK [3] = experiment: AMPK/ACC phosphorylation in primary human hepatocytes (immunoblot); assay type: cell-based; parameters: dose or concentration left out as unconfirmed; settings: 1 to 24 hours; following 1 hour; each of four donors
Description: Primary human hepatocytes were obtained from XenoTech LLC (Lenexa, Kans.). Four preparations were used: […]. The hepatocytes had reported viabilities of 95.4, 74.7, 77.9, and 74.9%, respectively. Upon receipt, the shipping medium was changed to Williams' E medium containing 10% FBS, penicillin, streptomycin, and L-glutamine. Following 24 hours of incubation at 37° C. and 5% CO2, the media was changed to 5% FBS, penicillin, streptomycin, and L-glutamine 4 hours prior to treatments.
as §1, with “Cells were harvested as previously described (Bumpus, 2011). Proteins” for “Proteins”

AMPKa = AMPKa acetylation status in hepatocytes (immunoprecipitation, acetylated lysine immunoblot); assay type: cell-based, mouse
Description: as §2

ob/ob mice = experiment: In vivo mouse study, 14 days via drinking water; settings: for Accumulation of fats in the liver (histology) compared with untreated mice: hematoxylin and eosin staining; for Body mass day 1: day 1 prior to treatment; for Body mass day 7 / Body mass day 14: 0.26% (w/v) VPA or 0.5% (w/v) metformin in drinking water
Description: FIG. 6A-6E. […] A section of each liver was analyzed using hemotoxylin and eosin staining Histology images are representative of four mice per treatment group (A). The mass of each liver was measured and calculated as a ratio to body mass (B). Serum glucose (C) and serum triglyceride (D) concentrations were measured using colorimetric assays. ALT was measured using a colorimetric assay to assess for hepatotoxicity (E). Data in graphs are reported as the mean […] S.D. of four mice per cohort.
All treatments of mice as a part of this study were in accordance with protocols that were approved by the Institutional Animal Care and Use Committee of The Johns Hopkins University School of Medicine. […] Body masses were recorded on day 1 prior to treatment, day 7, and day 14. After 14 days of drug treatments, all mice were euthanized by isoflurane inhalation followed by cervical dislocation, and whole blood was collected immediately. The livers were weighed immediately, rinsed in cold phosphate-buffered saline, and fixed in 10% formalin for 48 hours for hematoxylin and eosin staining.
Serum glucose was analyzed using a Colorimetric Glucose Assay obtained from BioVision, Inc. (Milpitas, Calif.) and was performed according to manufacturer's instructions. Serum triglycerides were analyzed utilizing a Serum Triglyceride Determination Kit obtained from Sigma-Aldrich and was performed according to manufacturer's instructions.

[4] = 10 mg/kg/day in adults; cited from earlier work

For `C=CCC(CCC)C(=O)O` (racemic) [4-ene-VPA, (+/−)-2-Propyl-4-pentenoic Acid], the “Levels of phosphorylated AMPK/ACC compared with VPA” value (AMPK [1]) was “greater than treatment with VPA itself”, the “Levels of phosphorylated AMPK/ACC at higher concentration” value (AMPK [1]) was “commensurate with those observed using 20 mM of metabolites” and the “deacetylation as compared with samples treated with vehicle only” value [2] was 90.1±3.9%. For the same compound, the deacetylation (human recombinant HDAC1) was 81.5±15.5%.

In the case of `CC/C=C(\CCC)C(=O)O` [2-ene-VPA, (E,Z) 2-Propyl-2-pentenoic Acid], the “Levels of phosphorylated AMPK/ACC compared with VPA” value (AMPK [1]) is reported as “greater than treatment with VPA itself”, the “Levels of phosphorylated AMPK/ACC at higher concentration” value (AMPK [1]) is reported as “commensurate with those observed using 20 mM of metabolites” and the “deacetylation as compared with samples treated with vehicle only” value [2] is reported as 93.6±3.6%. For the same compound, the deacetylation (human recombinant HDAC1) was 90±9.1%.

In the case of `CCCC(C(=O)O)C(O)CC` (stereo not drawn) [3-OH-VPA, 3-Hydroxy-2-propylpentanoic Acid], the “Levels of phosphorylated AMPK/ACC compared with VPA” value (AMPK [1]) is reported as “greater than treatment with VPA itself”, the “Levels of phosphorylated AMPK/ACC at higher concentration” value (AMPK [1]) is reported as “commensurate with those observed using 20 mM of metabolites” and the “deacetylation as compared with samples treated with vehicle only” value [2] is reported as 98±3.9%. For the same compound, the deacetylation (human recombinant HDAC1) was 86±16.8%.

With `CCCC(C(=O)[O-])C(=O)CC.[Na+]` (stereo not drawn) [3-keto-VPA, 3-oxo-2-propyl-pentanoic Acid Sodium Salt] the “deacetylation as compared with samples treated with vehicle only” value [2] was 94±7.3% and the deacetylation (human recombinant HDAC1) was 90.9±15.2%.

In the case of `Nn1nnc2ccccc21` [ABT, 1-aminobenzotriazole], the “Levels of phosphorylated AMPK, ABT and VPA compared with ABT alone” value (AMPK [1]; 1 mM ABT 1 hour prior to VPA for 2 hours) is reported as “not elevated”.

For `c1cc(-c2cnn3cc(-c4ccc(OCCN5CCCCC5)cc4)cnc23)ccn1` [Compound C, 6-[4-(2-piperidin-1-ylethoxy)phenyl]-3-pyridin-4-ylpyrazolo[1,5-a]pyrimidine], the “Phosphorylation of ACC stimulated by VPA, in presence of AMPK inhibitor” value (AMPK [1]; Compound C 30 minutes prior to VPA for 2 hours) was “abrogated”.

In the case of `CC(/C=C/C(=O)NO)=C\[C@@H](C)C(=O)c1ccc(N(C)C)cc1` [TSA, trichostatin A], the “deacetylation as compared with samples treated with vehicle only” value [2] is reported as 34.6±4.3%.

In the case of `CCCC(CCC)C(=O)O` [VPA, valproic acid], the “Concentration at which maximal phosphorylation of AMPK and ACC was observed” value (AMPK [1]; 2-hour treatment, concentrations from 200 mM to 2 mM) is reported as 800 mM, the ACC protein levels (AMPK [1]; VPA) is reported as “not significantly different” and the AMPK protein levels (AMPK [1]; VPA) is reported as “did not change significantly”. The “Phosphorylation (Ser79) of ACC” value (AMPK [1]; VPA, time course 1-24 hours) was “observed”, the “Phosphorylation of AMPK and ACC” value (AMPK [3]) was “observed” and the “deacetylation as compared with samples treated with vehicle only” value [2] was 76.4±1.2%. The deacetylation (human recombinant HDAC1) was 73.2±5%, the “Acetylation of AMPKa compared with vehicle treatment samples” value (AMPKa) was “commensurate” and the “Accumulation of fats in the liver (histology) compared with untreated mice” value (ob/ob mice; 14 days) was “marked reduction”. The “Body mass day 1” value (ob/ob mice) was 50.2 ± 3 g, the “Body mass day 7” value (ob/ob mice) was 51.8 ± 3 g and the “Body mass day 14” value (ob/ob mice) was 53.8 ± 2.7 g. For the same compound, the “Abnormalities in the histology of treated livers” value (ob/ob mice; mouse, in vivo) was “did not detect any abnormalities” and the “Serum concentrations of VPA” value [4] was 400 to 1000 µM.

In the case of `CN(C)C(=N)N=C(N)N` [metformin, Metformin], the “Ratio of liver mass to body mass compared with untreated mice” value (ob/ob mice; 14 days) is reported as “significantly decreased”, the “Serum ALT activity” value (ob/ob mice; 14 days) is reported as 13.3±4 mU/ml and the “Serum glucose concentrations compared with untreated mice” value (ob/ob mice; 14 days) is reported as “significantly decreased”. The “Serum triglyceride concentrations compared with untreated mice” value (ob/ob mice; 14 days) was “decreased”, the “Accumulation of fats in the liver (histology) compared with untreated mice” value (ob/ob mice; 14 days) was “marked reduction” and the “Body mass day 1” value (ob/ob mice) was 45.4 ± 6 g. The “Body mass day 7” value (ob/ob mice) was 47.4 ± 5.6 g and the “Body mass day 14” value (ob/ob mice) was 50 ± 6.1 g.
